Data taken from ChEMBL document CHEMBL4028908, “The Discovery of 3-((4-Chloro-3-methoxyphenyl)amino)-1-((3R,4S)-4-cyanotetrahydro-2H-pyran-3-yl)-1H-pyrazole-4-carboxamide, a Highly Ligand Efficient and Efficacious Janus Kinase 1 Selective Inhibitor with Favorable Pharmacokinetic Properties” (J Med Chem, 2017).
In brackets after ≈: the same amount, converted by molar mass.

Key:
[1] = molecular target: T1, Tyrosine-protein kinase JAK3 (Homo sapiens, UniProt P52333)
T1 sequence (P52333 whole entry): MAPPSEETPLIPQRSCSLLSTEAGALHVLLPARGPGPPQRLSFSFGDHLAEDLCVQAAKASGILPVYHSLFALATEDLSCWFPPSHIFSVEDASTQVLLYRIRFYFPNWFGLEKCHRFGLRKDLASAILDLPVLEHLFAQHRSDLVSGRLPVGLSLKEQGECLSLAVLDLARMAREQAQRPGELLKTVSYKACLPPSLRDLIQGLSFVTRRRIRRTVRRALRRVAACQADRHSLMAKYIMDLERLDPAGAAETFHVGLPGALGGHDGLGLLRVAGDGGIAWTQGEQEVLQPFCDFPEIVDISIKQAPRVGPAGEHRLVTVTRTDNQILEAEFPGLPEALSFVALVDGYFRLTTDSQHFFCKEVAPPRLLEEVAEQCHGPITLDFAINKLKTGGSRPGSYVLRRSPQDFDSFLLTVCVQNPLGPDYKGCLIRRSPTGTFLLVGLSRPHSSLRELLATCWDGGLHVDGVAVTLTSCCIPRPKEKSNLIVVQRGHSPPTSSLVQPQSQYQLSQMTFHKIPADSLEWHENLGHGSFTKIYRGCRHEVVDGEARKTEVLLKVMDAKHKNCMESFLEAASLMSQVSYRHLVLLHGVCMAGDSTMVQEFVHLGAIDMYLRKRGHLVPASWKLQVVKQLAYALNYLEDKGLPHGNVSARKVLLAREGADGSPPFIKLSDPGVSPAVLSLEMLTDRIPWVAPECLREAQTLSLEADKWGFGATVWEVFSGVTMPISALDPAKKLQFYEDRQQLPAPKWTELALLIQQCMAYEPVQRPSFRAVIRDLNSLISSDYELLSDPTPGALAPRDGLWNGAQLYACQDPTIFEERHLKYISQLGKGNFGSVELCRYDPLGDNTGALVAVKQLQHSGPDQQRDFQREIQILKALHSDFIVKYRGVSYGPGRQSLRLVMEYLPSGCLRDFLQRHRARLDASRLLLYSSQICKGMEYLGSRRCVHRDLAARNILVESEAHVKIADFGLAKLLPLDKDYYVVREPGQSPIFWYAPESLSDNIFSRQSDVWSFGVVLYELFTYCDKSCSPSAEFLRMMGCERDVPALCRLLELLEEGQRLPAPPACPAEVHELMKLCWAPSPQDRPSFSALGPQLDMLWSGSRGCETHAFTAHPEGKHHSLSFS

[2] = Lipophilicity, log D of the compound at 100 uM at pH 7 by HPLC/DAD analysis; type: physicochemical; details: buffer
[3] = species on record: Homo sapiens; test: Selectivity ratio of IC50 for GST-tagged recombinant human JAK2 catalytic domain to IC50 for GST-tagged recombinant human JAK1 catalytic domain
[4] = molecular target: T2, Tyrosine-protein kinase JAK2 (Homo sapiens, UniProt O60674)
[5] = molecular target: T3, Tyrosine-protein kinase JAK1 (Homo sapiens, UniProt P23458)
[6] = molecular target: Non-receptor tyrosine-protein kinase TYK2 (Homo sapiens, UniProt P29597)
[7] = molecular target: T3, Tyrosine-protein kinase JAK1; remark: listed apart in the source
[8] = molecular target: T2, Tyrosine-protein kinase JAK2; remark: listed apart in the source
[9] = Intrinsic clearance in human hepatocytes after 120 mins by LC-MS/MS analysis; type: ADME, cell-based, Hepatocyte; details: read-out: CLH
[10] = Intrinsic clearance in rat hepatocytes after 120 mins by LC-MS/MS analysis; type: ADME, cell-based, Hepatocyte; details: read-out: CLH
[11] = Oral bioavailability in rat at 1 mg/kg; type: ADME, organism-based; details: in vivo
[12] = Solubility of the compound in FaSSIF solution at 100 uM after overnight incubation by UPLC/DAD analysis; type: physicochemical
[13] = molecular target: Voltage-gated inwardly rectifying potassium channel KCNH2 (Homo sapiens, UniProt Q12809)
[14] = Plasma clearance in rat at 0.5 mg/kg, iv or 1 mg/kg, po; type: ADME, organism-based
[15] = system: Rattus norvegicus; test: Unbound clearance in rat at 0.5 mg/kg, iv or 1 mg/kg, po; type: ADME, organism-based; details: in vivo

Sequence of Non-receptor tyrosine-protein kinase TYK2 (P29597 whole entry): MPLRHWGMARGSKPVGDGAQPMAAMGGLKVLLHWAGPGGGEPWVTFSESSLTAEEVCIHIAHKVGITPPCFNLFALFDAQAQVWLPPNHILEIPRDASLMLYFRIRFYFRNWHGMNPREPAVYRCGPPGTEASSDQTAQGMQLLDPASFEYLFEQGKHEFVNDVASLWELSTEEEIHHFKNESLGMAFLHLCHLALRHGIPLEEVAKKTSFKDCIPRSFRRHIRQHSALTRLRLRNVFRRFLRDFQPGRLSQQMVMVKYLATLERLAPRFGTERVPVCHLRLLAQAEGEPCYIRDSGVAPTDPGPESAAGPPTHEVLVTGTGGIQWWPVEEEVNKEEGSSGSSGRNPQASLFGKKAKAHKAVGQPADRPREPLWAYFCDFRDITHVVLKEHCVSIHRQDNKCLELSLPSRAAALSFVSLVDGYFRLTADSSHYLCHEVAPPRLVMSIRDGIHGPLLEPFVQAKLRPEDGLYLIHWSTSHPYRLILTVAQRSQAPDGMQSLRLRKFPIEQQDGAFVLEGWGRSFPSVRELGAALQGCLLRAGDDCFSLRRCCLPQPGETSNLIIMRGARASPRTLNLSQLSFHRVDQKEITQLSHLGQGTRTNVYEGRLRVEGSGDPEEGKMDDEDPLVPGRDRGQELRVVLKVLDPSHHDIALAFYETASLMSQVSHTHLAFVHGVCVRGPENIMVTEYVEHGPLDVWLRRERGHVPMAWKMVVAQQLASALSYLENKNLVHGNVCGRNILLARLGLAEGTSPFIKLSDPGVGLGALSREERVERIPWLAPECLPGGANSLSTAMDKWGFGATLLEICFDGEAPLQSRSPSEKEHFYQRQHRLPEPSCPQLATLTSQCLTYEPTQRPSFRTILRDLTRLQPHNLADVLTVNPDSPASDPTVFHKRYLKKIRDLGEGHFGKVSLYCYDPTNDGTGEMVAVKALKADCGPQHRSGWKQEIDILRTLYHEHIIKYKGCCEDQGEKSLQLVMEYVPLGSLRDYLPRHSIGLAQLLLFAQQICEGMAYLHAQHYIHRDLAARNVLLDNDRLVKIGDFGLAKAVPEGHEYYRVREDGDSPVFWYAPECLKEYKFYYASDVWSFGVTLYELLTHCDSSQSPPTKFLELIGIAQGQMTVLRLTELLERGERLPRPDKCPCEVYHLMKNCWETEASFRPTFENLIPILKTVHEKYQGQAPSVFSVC
Sequence of Voltage-gated inwardly rectifying potassium channel KCNH2 (Q12809 whole entry): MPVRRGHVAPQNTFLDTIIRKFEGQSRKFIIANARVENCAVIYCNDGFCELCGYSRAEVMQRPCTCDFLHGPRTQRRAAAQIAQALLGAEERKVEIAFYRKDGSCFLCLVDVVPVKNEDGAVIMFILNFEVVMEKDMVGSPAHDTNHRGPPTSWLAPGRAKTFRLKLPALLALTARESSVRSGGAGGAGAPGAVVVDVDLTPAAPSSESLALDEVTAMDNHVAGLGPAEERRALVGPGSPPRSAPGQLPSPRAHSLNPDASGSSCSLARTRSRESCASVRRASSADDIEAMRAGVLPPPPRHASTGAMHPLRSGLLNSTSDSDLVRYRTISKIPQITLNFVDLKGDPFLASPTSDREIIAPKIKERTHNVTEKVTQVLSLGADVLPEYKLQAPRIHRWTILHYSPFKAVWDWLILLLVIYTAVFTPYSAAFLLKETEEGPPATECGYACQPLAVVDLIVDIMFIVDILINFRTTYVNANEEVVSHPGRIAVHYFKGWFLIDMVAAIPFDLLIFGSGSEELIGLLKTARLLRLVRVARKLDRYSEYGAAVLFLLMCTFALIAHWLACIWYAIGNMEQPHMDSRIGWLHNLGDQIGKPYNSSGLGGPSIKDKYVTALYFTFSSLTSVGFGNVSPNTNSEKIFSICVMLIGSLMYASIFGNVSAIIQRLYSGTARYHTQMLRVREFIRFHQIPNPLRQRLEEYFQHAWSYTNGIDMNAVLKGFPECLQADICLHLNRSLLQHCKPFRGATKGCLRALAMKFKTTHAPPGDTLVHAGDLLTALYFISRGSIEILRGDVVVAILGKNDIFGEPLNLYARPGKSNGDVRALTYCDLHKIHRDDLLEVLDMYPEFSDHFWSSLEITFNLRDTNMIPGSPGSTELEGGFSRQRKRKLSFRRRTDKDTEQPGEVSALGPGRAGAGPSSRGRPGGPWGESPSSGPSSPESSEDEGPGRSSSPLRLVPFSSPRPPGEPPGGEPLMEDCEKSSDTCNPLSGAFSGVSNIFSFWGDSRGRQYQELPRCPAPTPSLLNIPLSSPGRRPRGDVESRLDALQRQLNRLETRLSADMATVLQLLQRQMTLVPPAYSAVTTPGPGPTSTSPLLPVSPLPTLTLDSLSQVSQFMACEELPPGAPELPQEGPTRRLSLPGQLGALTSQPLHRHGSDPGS
T2 sequence (O60674 whole entry): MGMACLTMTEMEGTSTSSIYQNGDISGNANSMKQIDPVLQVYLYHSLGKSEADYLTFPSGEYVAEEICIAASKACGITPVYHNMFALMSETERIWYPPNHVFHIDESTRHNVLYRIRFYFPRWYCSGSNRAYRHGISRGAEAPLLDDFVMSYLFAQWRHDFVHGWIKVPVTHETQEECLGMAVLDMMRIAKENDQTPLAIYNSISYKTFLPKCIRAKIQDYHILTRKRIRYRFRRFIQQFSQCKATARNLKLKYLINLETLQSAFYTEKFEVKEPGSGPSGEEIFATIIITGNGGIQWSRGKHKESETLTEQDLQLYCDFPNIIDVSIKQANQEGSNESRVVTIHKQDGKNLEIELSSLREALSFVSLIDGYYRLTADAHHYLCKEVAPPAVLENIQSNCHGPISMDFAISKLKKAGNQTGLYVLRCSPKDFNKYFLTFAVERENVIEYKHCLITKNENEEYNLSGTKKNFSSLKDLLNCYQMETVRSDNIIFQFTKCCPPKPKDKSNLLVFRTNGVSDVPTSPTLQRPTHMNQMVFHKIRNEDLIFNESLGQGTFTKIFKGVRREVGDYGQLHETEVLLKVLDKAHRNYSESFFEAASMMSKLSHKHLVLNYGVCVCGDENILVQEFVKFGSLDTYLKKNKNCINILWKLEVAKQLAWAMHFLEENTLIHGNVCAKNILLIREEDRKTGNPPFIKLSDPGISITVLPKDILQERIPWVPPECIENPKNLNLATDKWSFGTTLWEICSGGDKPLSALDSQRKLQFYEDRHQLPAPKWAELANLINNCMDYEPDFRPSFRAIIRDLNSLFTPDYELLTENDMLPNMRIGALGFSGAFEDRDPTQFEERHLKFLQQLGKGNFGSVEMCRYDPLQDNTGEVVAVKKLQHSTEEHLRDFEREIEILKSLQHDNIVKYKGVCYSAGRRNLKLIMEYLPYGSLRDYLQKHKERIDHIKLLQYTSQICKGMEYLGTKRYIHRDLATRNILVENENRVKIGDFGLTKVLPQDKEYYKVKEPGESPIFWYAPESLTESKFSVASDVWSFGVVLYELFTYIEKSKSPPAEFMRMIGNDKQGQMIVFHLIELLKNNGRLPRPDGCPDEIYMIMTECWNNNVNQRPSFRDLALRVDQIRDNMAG
T3 sequence (P23458 whole entry): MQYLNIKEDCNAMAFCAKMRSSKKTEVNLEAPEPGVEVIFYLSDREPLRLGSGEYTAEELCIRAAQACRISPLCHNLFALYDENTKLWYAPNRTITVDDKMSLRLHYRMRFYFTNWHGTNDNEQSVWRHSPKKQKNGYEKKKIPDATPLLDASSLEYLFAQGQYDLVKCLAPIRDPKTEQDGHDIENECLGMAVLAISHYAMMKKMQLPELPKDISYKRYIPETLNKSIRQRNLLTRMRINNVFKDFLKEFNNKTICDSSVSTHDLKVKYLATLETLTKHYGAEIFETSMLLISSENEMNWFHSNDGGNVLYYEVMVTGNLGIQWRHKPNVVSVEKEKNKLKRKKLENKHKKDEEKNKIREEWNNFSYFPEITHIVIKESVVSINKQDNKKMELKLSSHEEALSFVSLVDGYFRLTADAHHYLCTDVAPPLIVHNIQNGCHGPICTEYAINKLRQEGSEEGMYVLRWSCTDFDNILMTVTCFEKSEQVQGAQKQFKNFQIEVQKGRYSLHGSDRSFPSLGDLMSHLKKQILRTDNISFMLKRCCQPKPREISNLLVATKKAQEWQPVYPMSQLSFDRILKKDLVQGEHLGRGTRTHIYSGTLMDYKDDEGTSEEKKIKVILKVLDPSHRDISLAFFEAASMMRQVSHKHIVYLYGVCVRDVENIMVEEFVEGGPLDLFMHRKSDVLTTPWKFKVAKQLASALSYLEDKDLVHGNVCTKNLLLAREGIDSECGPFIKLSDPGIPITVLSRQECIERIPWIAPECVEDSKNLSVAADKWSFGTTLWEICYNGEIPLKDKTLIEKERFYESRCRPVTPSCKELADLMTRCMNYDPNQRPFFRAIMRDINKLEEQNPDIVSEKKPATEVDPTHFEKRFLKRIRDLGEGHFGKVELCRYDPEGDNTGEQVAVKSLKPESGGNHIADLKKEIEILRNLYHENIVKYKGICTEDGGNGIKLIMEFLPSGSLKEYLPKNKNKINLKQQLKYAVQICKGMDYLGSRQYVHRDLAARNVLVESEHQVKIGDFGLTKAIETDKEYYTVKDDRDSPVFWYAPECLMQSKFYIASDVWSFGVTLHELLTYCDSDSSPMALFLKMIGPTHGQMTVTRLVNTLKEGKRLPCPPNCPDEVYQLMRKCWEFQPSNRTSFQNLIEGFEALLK

Row | IC50 [1] | logD at 100 µM [2] | IC50 [4] | IC50 [5] | IC50 [6] | IC50 [7] | IC50 [8] | CLint scaled [9] | CLint scaled [10] | bioavailability [11] | solubility at 100 µM [12] | clearance [14] | CL free [15] | Compound | Ratio IC50 [3] | IC50 [13]
1 | > 1500 nM | 2.34 | 16 nM | 1.4 nM | 40 nM | 72 nM | 744 nM | – | – | – | – | – | – | N#Cc1ccc(Nc2nn([C@H]3COCC[C@@H]3C#N)cc2C(N)=O)cc1C1CC1 | 11 | –
2 | – | – | – | – | – | – | – | 32 mL/min/kg | 80 mL/min/kg | – | – | – | – | CN([C@H]1CC[C@H](n2cc(C(N)=O)c(Nc3ccc(Cl)cc3)n2)[C@@H](C#N)C1)C1(C)COC1 | – | 46000 nM
3 | 304 nM | 2.18 | 2 nM | 0.3 nM | 1.8 nM | 31 nM | 334 nM | < 20 mL/min/kg | < 40 mL/min/kg | 40% | 42 µM (≈ 13.8 µg/mL) | – | – | N#C[C@H]1CCOC[C@@H]1n1cc(C(N)=O)c(Nc2ccc(F)cc2)n1 | 7 | 40000 nM
4 | 361 nM | 2.08 | – | 0.4 nM | 2.9 nM | 33 nM | – | 6 mL/min/kg | 70 mL/min/kg | 79% | 18 µM (≈ 5.6 µg/mL) | 20 mL/min/kg | 110 mL/min/kg | N#C[C@H]1CCOC[C@@H]1n1cc(C(N)=O)c(Nc2ccccc2)n1 | – | > 60000 nM
5 | 701 nM | 2.07 | 3.4 nM | 0.18 nM | 13 nM | 28 nM | 530 nM | 4 mL/min/kg | 9 mL/min/kg | 4% | – | – | – | CN(C)c1cc(Nc2nn([C@H]3COCC[C@@H]3C#N)cc2C(N)=O)cc(F)n1 | 19 | –
6 | > 1500 nM | 1.4 | 10 nM | 0.19 nM | 8 nM | 24 nM | 2110 nM | 15 mL/min/kg | 15 mL/min/kg | – | – | – | – | COc1ccnc2c(F)cc(Nc3nn([C@H]4COCC[C@@H]4C#N)cc3C(N)=O)cc12 | 53 | –
7 | 1010 nM | 1.81 | 7 nM | 0.24 nM | 12 nM | 14 nM | 608 nM | 25 mL/min/kg | 52 mL/min/kg | 19% | – | – | – | N#C[C@H]1CCOC[C@@H]1n1cc(C(N)=O)c(Nc2cc(F)c3nccc(Cl)c3c2)n1 | 29 | –
8 | 100 nM | 1.93 | – | – | 0.4 nM | – | – | < 20 mL/min/kg | < 40 mL/min/kg | 9% | – | – | – | N#C[C@H]1CCOC[C@@H]1n1cc(C(N)=O)c(Nc2ccc([C@H](O)C(F)(F)F)cc2)n1 | – | > 60000 nM
9 | 511 nM | 1.18 | – | – | 3 nM | – | – | 1.5 mL/min/kg | 5 mL/min/kg | 19% | 159 µM (≈ 52.5 µg/mL) | – | – | N#C[C@H]1CCOC[C@@H]1n1cc(C(N)=O)c(Nc2ccnc(F)c2)n1 | – | > 60000 nM
10 | 556 nM | 2.18 | 2.7 nM | 0.4 nM | 4 nM | 26 nM | 261 nM | – | – | 23% | – | – | – | N#Cc1ccc(Nc2nn([C@H]3COCC[C@@H]3C#N)cc2C(N)=O)cc1Cl | 7 | –
11 | 280 nM | 2.58 | 1.9 nM | 0.5 nM | 3.9 nM | 37 nM | 200 nM | 41 mL/min/kg | 262 mL/min/kg | – | – | – | – | N#C[C@H]1CCOC[C@@H]1n1cc(C(N)=O)c(Nc2ccc(C3CC3)cc2)n1 | 4 | 35000 nM

Second part, the compound before the results:

Row | Compound | IC50 [1] | logD at 100 µM [2] | IC50 [4] | IC50 [5] | IC50 [6] | IC50 [7] | IC50 [8] | CLint scaled [9] | CLint scaled [10] | bioavailability [11] | solubility at 100 µM [12] | clearance [14] | CL free [15] | Ratio IC50 [3] | IC50 [13]
12 | N#Cc1ccc(Nc2nn([C@H]3COCC[C@@H]3C#N)cc2C(N)=O)cc1C#N | 656 nM | 1.99 | 5 nM | 0.9 nM | 11 nM | 77 nM | 1190 nM | – | – | – | – | – | – | 6 | –
13 | N#C[C@H]1CCOC[C@@H]1n1cc(C(N)=O)c(Nc2ccc(-n3ccnn3)cc2)n1 | 116 nM | 1 | 0.7 nM | 0.06 nM | 0.5 nM | 23 nM | 254 nM | 2.5 mL/min/kg | 4.8 mL/min/kg | 3% | 96 µM (≈ 36.3 µg/mL) | – | – | – | –
14 | N#C[C@H]1CCOC[C@@H]1n1cc(C(N)=O)c(Nc2ccc(OC(F)F)cc2)n1 | 196 nM | 2.27 | 0.8 nM | 0.1 nM | 0.7 nM | 5 nM | 54 nM | 28 mL/min/kg | 59 mL/min/kg | 42% | – | – | – | 11 | 25000 nM
15 | N#C[C@H]1CCOC[C@@H]1n1cc(C(N)=O)c(Nc2ccc(Cl)cc2)n1 | 256 nM | 2.57 | – | – | 2 nM | – | – | 85 mL/min/kg | 9 mL/min/kg | 71% | 39 µM (≈ 13.5 µg/mL) | – | – | – | 40000 nM
16 | Cn1cc(-c2ccc(Nc3nn([C@H]4COCC[C@@H]4C#N)cc3C(N)=O)cc2)cn1 | 91 nM | 1.48 | 0.5 nM | 0.02 nM | 0.2 nM | 6 nM | 39 nM | < 20 mL/min/kg | 55 mL/min/kg | 18% | 42 µM (≈ 16.4 µg/mL) | – | – | 23 | > 60000 nM
17 | N#C[C@H]1CCCC[C@@H]1n1cc(C(N)=O)c(Nc2ccccc2)n1 | – | 2.66 | – | – | – | – | – | 25 mL/min/kg | 160 mL/min/kg | – | – | 484 mL/min/kg | 12100 mL/min/kg | – | > 60000 nM
18 | C[C@@H]1NS(=O)(=O)c2ccc(Nc3nn([C@H]4COCC[C@@H]4C#N)cc3C(N)=O)cc21 | 315 nM | 3.15 | 2 nM | 0.04 nM | 1.7 nM | 16 nM | 224 nM | 62 mL/min/kg | 62 mL/min/kg | – | – | – | – | 50 | –
19 | COc1cc(Nc2nn([C@H]3COCC[C@@H]3C#N)cc2C(N)=O)ccc1C#N | 391 nM | 1.87 | 3.2 nM | – | 9 nM | 19 nM | 430 nM | 24 mL/min/kg | < 40 mL/min/kg | 2% | – | – | – | 46 | –
20 | N#C[C@H]1C[C@@H](O)CC[C@@H]1n1cc(C(N)=O)c(Nc2ccc(Cl)cc2)n1 | – | – | – | – | – | – | – | – | – | 10% | – | – | – | – | 26000 nM
21 | Cc1ncnc2ccc(Nc3nn([C@H]4COCC[C@@H]4C#N)cc3C(N)=O)cc12 | 783 nM | 1.02 | 7 nM | 0.16 nM | 14 nM | 24 nM | 1630 nM | – | – | – | – | – | – | 43 | –
22 | COc1cc(Nc2nn([C@H]3COCC[C@@H]3C#N)cc2C(N)=O)cc(F)n1 [ATINVICITINIB] | – | 1.89 | – | 0.4 nM | 13 nM | 39 nM | – | 2 mL/min/kg | 14 mL/min/kg | 49% | – | – | – | – | –
